We go through 20 compounds from patent publication US20250214977A1, “STAT6 INHIBITORS AND USES THEREOF” (Kymera Therapeutics, Inc., priority 2024, published 2025).

The test system of this test is Phosphorylation of STAT6 in human A549 cells. Description: Phosphorylated STAT6 (pSTAT6) flow cytometry assay in human A549 cells. Particulars: read-out: STAT6 IL4 pSTAT6 assay in A549 cells: Average IC50. The format is cell-based. The text has this:
Example 3. Phosphorylated STAT6 (pSTAT6) Flow Cytometry Assay in Human A549 Cells
Phosphorylation of STAT6 in human A549 cells was quantitatively measured using flow cytometry technology.

As a reminder, the IC50 is the concentration at which inhibition is half-maximal.

For `CNc1ccc(-c2cc(C3=CCCN(C(=O)CCn4ccnn4)C3)cc3[nH]c(C(=O)N(C)C)cc23)c(Cl)c1` [Example I-1050], the IC50 was under 0.1 µM.
The result for `COc1ccccc1-c1cc(C2=CCCN(C(=O)CCn3ccnn3)C2)c(F)c2[nH]c(C(=O)N3CCN(c4cc(O)cc5ccccc45)CC3)cc12` [Example I-930] reads 0.1 to 1 µM.
The same measure for `COc1ccccc1-c1cc(C2=CCCN(C(=O)CCn3ccnn3)C2)c(F)c2[nH]c(C(=O)N3CCN(c4ccncc4OC)CC3)cc12` [Example I-365]: under 0.1 µM; for `COc1ccccc1-c1cc(C2=CCCN(C(=O)CCn3ccnn3)C2)c(F)c2[nH]c(C(=O)N3CCN(Cc4nc(C)cs4)CC3)cc12` [Example I-1185]: under 0.1 µM.
The same measure for `CNc1cnc(N2CCN(C(=O)c3cc4c(-c5ccccc5OC)cc(C5=CCCN(C(=O)CCn6ccnn6)C5)c(F)c4[nH]3)CC2)c(OC)c1` [Example I-353]: under 0.1 µM.
For `COc1cc(F)cnc1N1CCN(C(=O)c2cc3c(-c4ccc(CN5CCOCC5)nc4)cc(C4=CCCN(C(=O)CCn5ccnn5)C4)c(F)c3[nH]2)CC1` [Example I-1137], the IC50 is under 0.1 µM.
The same measure for `COc1ccccc1-c1cc(C2=CCCN(C(=O)CCn3ccnn3)C2)c(F)c2[nH]c(C(=O)N3CCN(c4ccc5cn[nH]c5c4)CC3)cc12` [Example I-963]: under 0.1 µM; for `COc1cc(F)cnc1N1CCN(C(=O)c2cc3c(-c4ccc(C(=O)N5CCCC5)cc4F)cc(C4=CCCN(C(=O)CCn5ccnn5)C4)c(F)c3[nH]2)CC1` [Example I-1143]: under 0.1 µM; for `COc1ccccc1-c1cc(C2=CCCN(C(=O)CCn3ccnn3)C2)c(F)c2[nH]c(C(=O)N3CCCC3)cc12` [Example I-842]: under 0.1 µM.
The same measure for `COc1cccnc1N1CCN(C(=O)c2cc3c(N4CCCOCC4)cc(C4=CCCN(C(=O)CCn5ccnn5)C4)c(F)c3[nH]2)CC1` [Example I-592]: under 0.1 µM; for `CN(C)C(=O)c1cc2ccc(C3=CCCN(C(=O)CCn4ccnn4)C3)cc2s1` [Example I-816]: 0.1 to 1 µM.
The same measure for `CCOc1ccncc1-c1cc(C2=CCCN(C(=O)CCn3ccnn3)C2)c(F)c2[nH]c(C(=O)N3CCN(c4cnc(C)nc4OC)CC3)cc12` [Example I-1036]: under 0.1 µM; for `CCc1ccncc1-c1cc(C2=CCCN(C(=O)CCn3cccn3)C2)c(F)c2[nH]c(C(=O)N3CCN(c4ncc(OC)cc4OC)CC3)cc12` [Example I-683]: under 0.1 µM; for `COc1ccccc1-c1cc(C2=CCCN(C(=O)CCn3ccnn3)C2)c(F)c2[nH]c(C(=O)N3CCN(c4ccc5c(c4)c4ccccc4n5C)CC3)cc12` [Example I-770]: 1 to 10 µM.
`CN(C)C(=O)c1cc2ccc(C3CCCN(C(=O)CCn4ccnn4)C3)cc2[nH]1` (centres unmarked) [Example I-1188]: the IC50 lay within 0.1 to 1 µM.
The result for `COc1ccccc1-c1cc(C2=CCCN(C(=O)CCn3ccnn3)C2)c(F)c2[nH]c(C(=O)N3CCN(c4cc(C#N)ccc4OC)CC3)cc12` [Example I-356, 3-(4-(6-(1-(3-(1H-1,2,3-triazol-1-yl)propanoyl)-1,2,5,6-tetrahydropyridin-3-yl)-7-fluoro-4-(2-methoxyphenyl)-1H-indole-2-carbonyl)piperazin-1-yl)-4-methoxybenzonitrile] reads under 0.1 µM; that for `COc1ccccc1-c1cc(C2=CCCN(C(=O)CCn3ccnn3)C2)c(F)c2[nH]c(C(=O)N3CCN(c4ccccn4)CC3)cc12` [Example I-862], under 0.1 µM.
The result for `COc1ccccc1-c1cc(C2=CCCN(C(=O)CCn3ccnn3)C2)c(F)c2[nH]c(C(=O)N3CCN(c4ccccc4)CC3)cc12` [Example I-419] reads under 0.1 µM.
On to `CCOc1ccncc1-c1cc(C2=CCCN(C(=O)CCn3ccnn3)C2)c(F)c2[nH]c(C(=O)N3CCN(c4ncc(C)nc4OC)CC3)cc12` [Example I-1041], for which the IC50 is under 0.1 µM.
As for `COc1cc(F)cnc1N1CCN(C(=O)c2cc3c(-c4cccc(C)c4)cc(C4=CCCN(C(=O)CCn5ccnn5)C4)c(F)c3[nH]2)CC1` [Example I-673], the IC50 is under 0.1 µM.
